Data on eight compounds can be found in US9255106B2, “Substituted [1,2,4]triazolo[4,3-a]pyrazines as PARP-1 inhibitors” (SHANGHAI INSTITUTE OF MATERIA MEDICA, CHINESE ACADEMY OF …, priority 2012, dated 2016).

The term IC50 denotes the point on the concentration scale where inhibition reaches its midpoint. As a reminder, the bioavailability is dose-corrected exposure relative to a reference, in per cent.

Molecules are shown by their SMILES. Marks after values point to notes of the source that are not given here. Some results are limits rather than exact numbers.

Data set [1] has as its system MDA-MB-436 human breast cancer. Put plainly: Antitumor activity in vivo, subcutaneously transplanted tumor in MDA-MB-436 human breast cancer nude mice. The settings on record: for TV (mean ± SD) d0: d0 (at grouping); for RTV (mean ± SD) / T/C (%) / TV (mean ± SD) d21 / number of animals in which tumor regressed: d21; for number of animals in which tumor regressed: 6 animals. On the procedure:
A tumor tissue in vigorous growing period was cut into about 1.5 mm^3, and inoculated subcutaneously into right armpit of nude mice under a sterile condition. The diameter of subcutaneous transplant tumor in nude mice was measured by vernier caliper. When the tumor grew to 100-200 mm^3, the animals were randomly grouped. […] Solvent control group was administered saline in same volume. During the whole experiment, the tumor diameter was measured twice a week, while the body weight of mice was weighed simultaneously. The formula to calculate tumor volume (TV) was TV=½*a*b^2, wherein a and b respectively referred to length and width. Relative tumor volume (RTV) was calculated according to the measurements, and the formula is RTV=Vt/V0, wherein V0 is the tumor volume measured when the mice were grouped (i.e. d0), and Vt is the tumor volume measured each time.

Another data set deals with PC-3. Put plainly: Inhibition of tumor cell proliferation, PC-3. As to conditions: Homo sapiens.
The test system of a further data set is U87-MG. Put plainly: Inhibition of tumor cell proliferation, U87-MG. The settings on record: Homo sapiens, U-87 MG.
A further data set relates to Capan-1. Put plainly: Inhibition of tumor cell proliferation, Capan-1. As to conditions: Homo sapiens.
The next data set concerns OVCAR-8. Put plainly: Inhibition of tumor cell proliferation, OVCAR-8. As to conditions: Homo sapiens.
Another data set concerns V8 cell. Put plainly: PARP1 inhibitory activity at cellular level (proliferation inhibition model). As to conditions: read-out: PARP1 inhibitory activity at cellular level (%).
For data set [2] the following is noted: in vivo; cited from earlier work.
The test system of a further data set is U251. Put plainly: Inhibition of tumor cell proliferation, U251. The settings on record: Homo sapiens, U-251.

As to `CC1CN(C(=O)c2cc(Cc3n[nH]c(=O)c4ccccc34)ccc2F)Cc2nnc(C(F)(F)F)n21` (racemic) [Compound S3], in data set [1] (25 mg/kg, po, qd × 21), the “TV (mean ± SD) d0” value worked out at 127 ± 30 mm^3, the “RTV (mean ± SD)” value is 1.40 ± 0.71**, the “T/C (%)” value is recorded as 9.80% and the “TV (mean ± SD) d21” value is listed as 165 ± 57 mm^3. Besides, in data set [1] (25 mg/kg, po, qd × 21), the “number of animals in which tumor regressed” value was 3. Further, the “tumor outcome” value in data set [1] (100 mg/kg) is “the tumor completely disappeared”. In addition, in data set [1] (100 mg/kg and 25 mg/kg, po, qd × 21), the side effects result is on record as “no significant side effects”. For the same compound, in data set [1] (100 mg/kg, po, qd × 21), the “TV (mean ± SD) d0” value turned out to be 128 ± 36 mm^3, the “RTV (mean ± SD)” value is reported as 0.08 ± 0.04**, the “T/C (%)” value was 0.59% and the “TV (mean ± SD) d21” value amounted to 11 ± 7 mm^3. Moreover, in data set [1] (100 mg/kg, po, qd × 21), the “number of animals in which tumor regressed” value came out at 1. The compound also registered an IC50 in the data set with PC-3 of 995 nM. The IC50 in the data set with U87-MG is 228 nM. This compound also showed an IC50 with Capan-1 of 7.6 nM. Further, the IC50 with OVCAR-8 came to 10500 nM. In the data set on V8 cell, the inhibition at 0.0016 µM is -3.11%, the inhibition at 0.008 µM was determined as 33.1%, the inhibition at 0.04 µM is 61.2% and the inhibition at 0.2 µM was 70.1%. In the data set with V8 cell, the inhibition at 1 µM was found to be 74.4%.
As to `O=C(c1cc(Cc2n[nH]c(=O)c3ccccc23)ccc1F)N1CCN(C(=O)C2CC2)CC1` [AZD2281, olaparib, reference compound], in data set [1] (100 mg/kg, po, qd × 21), the “TV (mean ± SD) d0” value is 127 ± 37 mm^3, the “RTV (mean ± SD)” value is given as 0.95 ± 0.78**, the “T/C (%)” value is listed as 6.65% and the “TV (mean ± SD) d21” value was found to be 120 ± 118 mm^3. Also, in data set [2], the bioavailability was under 15% and the half-life time is under 1 h. The same compound registered an IC50 in the data set with PC-3 of 3920 nM. Further, the IC50 in the data set on U251 was 1190 nM. Besides, the 50% inhibitory concentration (IC50) in the data set with U87-MG came to 2920 nM. In the data set on Capan-1, this compound yielded an IC50 of 729 nM. In the data set on OVCAR-8, this compound had an IC50 of 12400 nM.
As for `CC1c2nnc(C(F)(F)F)n2CCN1C(=O)c1cc(Cc2n[nH]c(=O)c3ccccc23)ccc1F` (centres unmarked) [Compound S4], in the data set with V8 cell, the inhibition at 0.0016 µM was -1.36%, the inhibition at 0.008 µM was 8.66%, the inhibition at 0.04 µM stood at 53.1% and the inhibition at 0.2 µM stood at 75.5%. The inhibition at 1 µM in the data set with V8 cell stood at 75.7%.
For the compound `CC1c2nnc(C(F)(F)F)n2C(C)CN1C(=O)c1cc(Cc2n[nH]c(=O)c3ccccc23)ccc1F` (centres unmarked) [Compound S5], in the data set with V8 cell, the inhibition at 0.0016 µM was -5.06%, the inhibition at 0.008 µM was -3.01%, the inhibition at 0.04 µM turned out to be 23.5% and the inhibition at 0.2 µM came to 63.8%. For the same compound, the inhibition at 1 µM in the data set with V8 cell worked out at 73.5%.
Turning to `COC1CN(C(=O)c2cc(Cc3n[nH]c(=O)c4ccccc34)ccc2F)Cc2nnc(C(F)(F)F)n21` (centres unmarked) [Compound S10], in the data set with V8 cell, the inhibition at 0.0016 µM came to 11.6%, the inhibition at 0.008 µM stood at 10.5%, the inhibition at 0.04 µM amounted to 31.8% and the inhibition at 0.2 µM turned out to be 67.5%. Further, in the data set with V8 cell, the inhibition at 1 µM stood at 78.6%.
For `CC1CN(C(=O)c2cc(Cc3n[nH]c(=O)c4ccccc34)ccc2F)Cc2nnc(C(F)F)n21` (centres unmarked) [Compound S17], in that order: 4.61%, 12.1%, 65.6%, 76.5% and 79.7%.
For the compound `CC1CN(C(=O)c2cc(Cc3n[nH]c(=O)c4ccccc34)ccc2F)Cc2nnc(CF)n21` (centres unmarked) [Compound S18], in the data set on V8 cell, the inhibition at 0.0016 µM amounted to 7.63%, the inhibition at 0.008 µM is 54.1%, the inhibition at 0.04 µM came to 77% and the inhibition at 0.2 µM was 77%. Besides, in the data set on V8 cell, the inhibition at 1 µM amounted to 78.4%.
For `CC1c2nnc(CF)n2C(C)CN1C(=O)c1cc(Cc2n[nH]c(=O)c3ccccc23)ccc1F` (centres unmarked) [Compound S19], in the data set on V8 cell, the inhibition at 0.0016 µM was 2.09%, the inhibition at 0.008 µM is -2.17%, the inhibition at 0.04 µM came to 3.32% and the inhibition at 0.2 µM was determined as 0.4%. Moreover, in the data set on V8 cell, the inhibition at 1 µM is 0.69%.
